The results in this text go back to US5472973A, “Fluorenyl derivatives as anti-inflammatory agents” (Scios Nova Inc., priority 1992, dated 1995).

In experiment [1] the test system is reverse passive Arthus reaction. Put plainly: Reverse Passive Arthus Reaction (RPA). The class given is in vivo, rat (male SD). The following applies: ip, rat. The protocol: Male SD rats weighing between 200 and 300 g were used. Test compounds were dissolved in dimethyl sulfoxide and 1 ml/kg of this stock solution (100 mg/ml), on serial dilutions were injected intraperitoneally one hour before administration of the antigen or given orally. The animals were anesthetized inhalationally with isoflurane and then injected through the penile vein with 1 ml of a solution of 2.5 mg of Evan's blue dye and 5.0 mg of human serum albumin in 1 ml of saline. This treatment was followed immediately by intracutaneous injections of 0.075 ml of anti-human albumin diluted to contain 4.38 mg/ml of antibody at 2 sites opposite the midline back. Anesthesia was terminated and after three hours, the animals were sacrificed. The skin was removed and the blue stained areas cut out. The skin patches were soaked overnight in stoppered tubes containing 2 ml of 1N potassium hydroxide at 5° C. Then 9 ml of a mixture of five parts of a 1.2N phosphoric acid and thirteen parts of acetone were added to the tubes. The tube contents were agitated and centrifuged, and the absorbance measured at 620 nm. The data were calculated as inhibition of blueing by test compound compared to control animals receiving only antigen and antibody.

The subject of experiment [2] is plasma fibrinogen. Kind of experiment: Adjuvant arthritis, plasma fibrinogen inhibition in rats. The class given is in vivo, rat (male Sprague Dawley). The note with it: po, rat; for ED (maximal inhibition) at 100 mg/kg: 0.3 to 100 mg/kg, read-out: AA (p.o.) Dose yielding max inhibition (100 mg/kg).
The subject of experiment [3] is oxazolone-induced ear edema. Put plainly: Inhibition of ear edema caused by oxazolone. The format is in vivo, mouse (CF-1). The following applies: given orally, mouse, 24 h; dose not given. The protocol:
CF-1 mice, 25-30 g body weight, six animals per group were used. The mice were sensitized to the irritant two weeks prior to the test by dribbling 100 μL of a 3% solution of oxazolone in acetone onto the scrotum of the animal. Test compounds were administered orally at doses of 100 mg/kg and 300 mg/kg for 1 hour prior to oxazolone, intraperitoneally as follows: The test compound was dissolved in dimethyl sulfoxide and doses of 10 mg/kg, 30 mg/kg and 100 mg/kg were injected 15 minutes prior to irritant. The irritant, 3% oxazolone in acetone, was added to the surface of the ear, 5 μl added to the upper surface and 5 μl added to the lower surface. After twenty four hours, the thickness of the ear was measured to 0.01 mm by a micrometer with loose drag, positioned at the lateral-most edge of the mid-point of the pinna. Data were calculated as the inhibition of increased ear thickness compared to control animals' receiving only the irritant. In general, % inhibition of greater than 20% is statistically significant (p<0.05 or less, Student's t-test for unpaired data).

Experiment [4] relates to inflammatory screens. Kind of experiment: Anti-inflammatory activity, general statements (oral activity, inflammatory screens). The format is in vivo. The protocol:
Such inflammatory agents typically include oxazolone, and the like. The reverse passive Arthus test offers another measure of the compound's utility in preventing an inflammatory response (Chang et al. Eur. J. Phar. 69:155-164 (1981)). Test compounds are typically administered intraperitoneally or orally. For intraperitoneal administration, the test compound can be given in dimethyl sulfoxide or in 0.5% methylcellulose 30 minutes prior to administration of the irritant. For oral administration, the test compound can be compounded into tablet or capsule form as well as dissolved in, for example, water or ethanol and swallowed prior to application of the irritant. Results can be expressed as the percent decrease in swelling in the compound-treated animals as compared to control animals that receive only the irritant.

The structures appear in SMILES notation.

As for `O=C(Nc1ccc(C(=O)O)cc1)OCCC1c2ccccc2-c2ccccc21` [Example 7, N-[9H-(Fluorenyl-9-ethoxycarbonyl)]amino-4-benzoic acid], the ED50 – broadly, the midpoint of the dose-response relation – in experiment [1] came out at 70 mg/kg. For the same molecule, the ED (maximal inhibition) at 100 mg/kg in experiment [2] stood at 30 mg/kg. Besides, the ED (maximal inhibition) in experiment [2] (given orally, read-out: dose achieving maximum inhibition of plasma fibrinogen) came out at 3 mg/kg. For the same molecule, the “inhibition of increased ear thickness (oxazolone)” value in experiment [3] worked out at 50%. Besides, the “activity when taken orally” value in experiment [4] is given as “exhibit activity even when taken orally”.

Regarding `O=C(Nc1ccc(C(=O)O)cc1)OC1c2ccccc2-c2ccccc21` [N-(9H-fluorenyl-9-oxycarbonyl)-4-aminobenzoic acid], the “activity when taken orally” value in experiment [4] was “exhibit activity even when taken orally”.

As for `Cc1ccc2c(c1)C(CCOC(=O)Nc1ccc(C(=O)O)cc1)c1cc(C)ccc1-2` [Example 8, N-[9H-(2,7-Dimethylfluorenyl-9-ethoxycarbonyl)]amino-4-benzoic acid], the 50% effective dose (ED50) in experiment [1] amounted to 100 mg/kg. In addition, the ED (maximal inhibition) at 100 mg/kg in experiment [2] came to 100 mg/kg. Besides, in experiment [4], the “activity when taken orally” value is given as “exhibit activity even when taken orally”.

In experiment [1], `O=C(Nc1ccc(C(=O)O)cc1)OCCC1c2cc(Cl)ccc2-c2ccc(Cl)cc21` [Example 9] had a 50% effective dose (ED50) of 34 mg/kg. Also, in experiment [2], the ED (maximal inhibition) at 100 mg/kg amounted to 3 mg/kg. Moreover, the “activity when taken orally” value in experiment [4] is recorded as “exhibit activity even when taken orally”.

Consider `O=C(Nc1ccc(C(=O)NS(=O)(=O)c2ccccc2)cc1)OCCC1c2ccccc2-c2ccccc21` [N-{[9H-(fluorenyl-9-ethoxycarbonyl)]-4-amino-benzoyl}-benzenesulfonamide], for which the “activity when taken orally” value in experiment [4] is on record as “exhibit activity even when taken orally”.
